Assay [1] deals with Human MET (residues 956-1390) (Homo sapiens (Human), UniProt P08581). Nature of the assay: Human Met kinase assay, HTRF KinEase (Example D-2). It is filed as biochemical. As to conditions: protocol of Example D-2; read-out: c-Met IC50. The essentials: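 MET kinase domain (956-1390), 0.1 ng/well, in buffer with 5 mM MgCl2, 1 mM DTT and 1 mM MnCl2, phosphorylated a biotinylated peptide at ATP Km for 40 min at RT; 10 concentrations, 3% DMSO final. EDTA-stopped HTRF read after 60 min; IC50 from a 4-parameter logistic fit.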
Chain of Human MET (residues 956-1390) (P08581 956-1390): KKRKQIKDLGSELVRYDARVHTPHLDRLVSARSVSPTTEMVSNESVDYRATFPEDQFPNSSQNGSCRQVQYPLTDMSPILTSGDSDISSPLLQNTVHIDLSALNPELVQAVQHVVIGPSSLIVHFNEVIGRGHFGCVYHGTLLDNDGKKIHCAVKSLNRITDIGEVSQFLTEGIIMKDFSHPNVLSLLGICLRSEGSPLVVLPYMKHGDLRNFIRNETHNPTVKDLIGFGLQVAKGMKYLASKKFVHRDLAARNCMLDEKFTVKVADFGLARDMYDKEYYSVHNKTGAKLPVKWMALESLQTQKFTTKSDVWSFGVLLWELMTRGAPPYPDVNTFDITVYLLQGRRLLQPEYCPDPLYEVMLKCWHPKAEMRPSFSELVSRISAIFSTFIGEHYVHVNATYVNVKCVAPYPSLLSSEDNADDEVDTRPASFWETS
Background: In TR-FRET formats the signal depends on donor and acceptor labels being close together.

Assay [2] concerns the target KDR (phospho-KDR, VEGF165-stimulated HUVEC cells) (Homo sapiens (Human), UniProt P35968). Nature of the assay: KDR autophosphorylation ELISA in HUVEC cells (Example G). It is filed as cell-based. As to conditions: cellular activity; KDR autophosphorylation ELISA in HUVEC cells. In a few lines: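 First, endothelial cells were cultured a day, then kept without serum for another day. Next came 1 h with serially diluted compound, a brief 5 min VEGF165 stimulus (100 ng/mL), rapid lysis, and ELISA detection of receptor phosphorylation relative to stimulated and non-stimulated controls.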
On the technique in general: In an ELISA, binding on a coated surface is turned into a signal by an enzyme label.

Chain of KDR (phospho-KDR, VEGF165-stimulated HUVEC cells) (P35968 20-1356): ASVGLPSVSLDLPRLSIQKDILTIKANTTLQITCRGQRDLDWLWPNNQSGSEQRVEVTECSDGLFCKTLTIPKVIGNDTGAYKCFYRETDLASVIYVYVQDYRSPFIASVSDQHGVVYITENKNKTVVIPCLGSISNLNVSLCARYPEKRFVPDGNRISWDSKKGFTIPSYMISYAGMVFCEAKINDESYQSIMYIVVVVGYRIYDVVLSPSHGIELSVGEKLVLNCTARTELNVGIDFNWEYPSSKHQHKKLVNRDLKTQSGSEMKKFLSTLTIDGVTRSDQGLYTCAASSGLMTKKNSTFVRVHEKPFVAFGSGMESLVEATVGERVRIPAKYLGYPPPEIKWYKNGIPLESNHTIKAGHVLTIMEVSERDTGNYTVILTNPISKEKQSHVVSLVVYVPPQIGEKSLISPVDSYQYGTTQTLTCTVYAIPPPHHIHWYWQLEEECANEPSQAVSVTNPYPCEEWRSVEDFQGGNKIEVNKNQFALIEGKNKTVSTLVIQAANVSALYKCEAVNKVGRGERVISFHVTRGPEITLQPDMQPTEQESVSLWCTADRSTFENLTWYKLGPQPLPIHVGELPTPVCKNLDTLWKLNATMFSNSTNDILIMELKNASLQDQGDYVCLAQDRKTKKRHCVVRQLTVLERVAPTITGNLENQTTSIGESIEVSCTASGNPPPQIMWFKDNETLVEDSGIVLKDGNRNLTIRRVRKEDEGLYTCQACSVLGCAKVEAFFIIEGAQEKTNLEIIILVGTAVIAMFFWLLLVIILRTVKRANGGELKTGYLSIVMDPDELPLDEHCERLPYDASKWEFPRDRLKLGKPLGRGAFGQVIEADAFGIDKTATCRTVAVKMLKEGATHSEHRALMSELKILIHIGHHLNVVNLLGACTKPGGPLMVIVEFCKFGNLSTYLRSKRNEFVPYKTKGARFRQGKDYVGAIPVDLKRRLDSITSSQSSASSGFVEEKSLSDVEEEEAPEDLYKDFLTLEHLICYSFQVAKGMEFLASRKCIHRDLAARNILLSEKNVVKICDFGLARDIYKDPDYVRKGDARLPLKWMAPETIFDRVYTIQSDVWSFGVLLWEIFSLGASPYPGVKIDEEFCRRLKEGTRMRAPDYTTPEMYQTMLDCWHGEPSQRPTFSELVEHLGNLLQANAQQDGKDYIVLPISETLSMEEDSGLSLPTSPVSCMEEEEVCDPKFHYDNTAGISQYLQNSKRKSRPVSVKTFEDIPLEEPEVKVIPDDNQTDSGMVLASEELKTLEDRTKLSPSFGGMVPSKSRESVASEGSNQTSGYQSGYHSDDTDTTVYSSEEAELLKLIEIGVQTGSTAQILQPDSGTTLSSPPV

One may read the IC50 as the concentration at which inhibition is half-maximal. As for `COc1ccc2nccc(Oc3ccc(NC(=O)c4c(C)ncc(-c5ccc(F)cc5C)c4O)cc3F)c2n1` [Compound 480, N-[3-fluoro-4-[(6-methoxy-1,5-naphthyridin-4-yl)oxy]phenyl]-5-(4-fluoro-2-methylphenyl)-4-hydroxy-2-methylpyridine-3-carboxamide], the IC50 is 100 to 300 nM in assay [1] and below 100 nM in assay [2].

Consider `COc1cc2nccc(Oc3ccc(NC(=O)c4c(C)n(C)cc(-c5ccc(F)cc5C)c4=O)cc3F)c2nc1OC` [Compound 481, N-[4-[(6,7-dimethoxy-1,5-naphthyridin-4-yl)oxy]-3-fluorophenyl]-5-(4-fluoro-2-methylphenyl)-1,2-dimethyl-4-oxopyridine-3-carboxamide], for which the half-inhibitory concentration (IC50) in assay [1] and in assay [2] was below 100 nM each time.

With `COCCOc1cc2nccc(Oc3ccc(NC(=O)c4c(COC)nc(C)c(-c5ccc(F)cc5)c4O)cc3F)c2nc1OC` [Compound 482, N-[3-fluoro-4-[[6-methoxy-7-(2-methoxyethoxy)-1,5-naphthyridin-4-yl]oxy]phenyl]-5-(4-fluorophenyl)-4-hydroxy-2-(methoxymethyl)-6-methylpyridine-3-carboxamide], the IC50 in assay [1] and in assay [2] was below 100 nM each time.

For the compound `COc1ccc2nccc(Oc3ccc(NC(=O)c4c(C)n(C)cc(-c5ccc(F)cc5C)c4=O)cc3F)c2n1` [Compound 483, N-[3-fluoro-4-[(6-methoxy-1,5-naphthyridin-4-yl)oxy]phenyl]-5-(4-fluoro-2-methylphenyl)-1,2-dimethyl-4-oxopyridine-3-carboxamide], the IC50 in assay [1] and in assay [2] was above 300 nM each time.

For the compound `COc1cc2c(Oc3ccc(NC(=O)c4ccc(C)n(-c5ccc(F)cc5)c4=O)cc3F)ccnc2cn1` [Compound 494, N-[3-fluoro-4-[(6-methoxy-1,7-naphthyridin-4-yl)oxy]phenyl]-1-(4-fluorophenyl)-6-methyl-2-oxopyridine-3-carboxamide], the IC50 in assay [1] and in assay [2] was below 100 nM in each case.

For the compound `COc1cc2nccc(Oc3ccc(NC(=O)c4cn(C)cc(-c5ccc(F)cc5C)c4=O)cc3F)c2nc1OC` [Compound 503, N-[4-[(6,7-dimethoxy-1,5-naphthyridin-4-yl)oxy]-3-fluorophenyl]-5-(4-fluoro-2-methylphenyl)-1-methyl-4-oxopyridine-3-carboxamide], the IC50 in assay [1] and in assay [2] was below 100 nM each time.

For `CCc1ncc(C(=O)Nc2ccc(Oc3ccnc4cc(OC)c(OC)nc34)c(F)c2)c(O)c1-c1ccc(F)cc1` [Compound 504, N-[4-[(6,7-dimethoxy-1,5-naphthyridin-4-yl)oxy]-3-fluorophenyl]-6-ethyl-5-(4-fluorophenyl)-4-hydroxypyridine-3-carboxamide], the IC50 in assay [1] and in assay [2] was below 100 nM in each case.

`Cc1cc(F)ccc1-c1c(C)nc(C)c(C(=O)Nc2ccc(Oc3ccnc4cccnc34)c(F)c2)c1O` [Compound 505, 5-(4-fluoro-2-methylphenyl)-N-[3-fluoro-4-(1,5-naphthyridin-4-yloxy)phenyl]-4-hydroxy-2,6-dimethylpyridine-3-carboxamide]: the IC50 in assay [1] and in assay [2] was below 100 nM throughout.

Consider `Cc1ccc2nccc(Oc3ccc(NC(=O)c4c(C)nc(C)c(-c5ccc(F)cc5C)c4O)cc3F)c2n1` [Compound 506, N-[3-fluoro-4-[(6-methyl-1,5-naphthyridin-4-yl)oxy]phenyl]-5-(4-fluoro-2-methylphenyl)-4-hydroxy-2,6-dimethylpyridine-3-carboxamide], for which the IC50 in assay [1] and in assay [2] was below 100 nM each time.

As to `COc1cnc2c(Oc3ccc(NC(=O)c4c(C)n(C)c(C)c(-c5ccc(F)cc5)c4=O)cc3F)ccnc2c1` [Compound 508, N-[3-fluoro-4-[(7-methoxy-1,5-naphthyridin-4-yl)oxy]phenyl]-5-(4-fluorophenyl)-1,2,6-trimethyl-4-oxopyridine-3-carboxamide], the IC50 in assay [1] is below 100 nM; in assay [2], above 300 nM.

`CCc1nc(C)c(-c2ccc(F)cc2)c(O)c1C(=O)Nc1ccc(Oc2ccnc3ccc(OC)nc23)cc1` [Compound 509, 2-ethyl-5-(4-fluorophenyl)-4-hydroxy-N-[4-[(6-methoxy-1,5-naphthyridin-4-yl)oxy]phenyl]-6-methylpyridine-3-carboxamide]: the concentration for half-maximal inhibition (IC50) in assay [1] and in assay [2] was below 100 nM throughout.

`COCc1nc(C)c(-c2ccc(F)cc2)c(O)c1C(=O)Nc1ccc(Oc2ccnc3ccc(OC)nc23)cc1` [Compound 510, 5-(4-fluorophenyl)-4-hydroxy-2-(methoxymethyl)-N-[4-[(6-methoxy-1,5-naphthyridin-4-yl)oxy]phenyl]-6-methylpyridine-3-carboxamide]: the IC50 in assay [1] and in assay [2] was below 100 nM throughout.

`COc1cc2nccc(Oc3ccc(NC(=O)c4c(C)n(C)c(C)c(-c5ccc(F)cc5)c4=O)cc3F)c2nc1OC` [Compound 511, N-[4-[(6,7-dimethoxy-1,5-naphthyridin-4-yl)oxy]-3-fluorophenyl]-5-(4-fluorophenyl)-1,2,6-trimethyl-4-oxopyridine-3-carboxamide]: the IC50 is below 100 nM in assay [1] and 100 to 300 nM in assay [2].

For `COc1cc2nccc(Oc3ccc(NC(=O)c4nn(C)c(C)c(-c5ccc(F)cc5C)c4=O)cc3F)c2nc1OC` [Compound 512, N-[4-[(6,7-dimethoxy-1,5-naphthyridin-4-yl)oxy]-3-fluorophenyl]-5-(4-fluoro-2-methylphenyl)-1,6-dimethyl-4-oxopyridazine-3-carboxamide], the IC50 in assay [1] and in assay [2] was below 100 nM each time.

Take `COc1cnc2c(Oc3ccc(NC(=O)c4nn(C)c(C)c(-c5ccc(F)cc5C)c4=O)cc3F)ccnc2c1` [Compound 513, N-[3-fluoro-4-[(7-methoxy-1,5-naphthyridin-4-yl)oxy]phenyl]-5-(4-fluoro-2-methylphenyl)-1,6-dimethyl-4-oxopyridazine-3-carboxamide]: the IC50 in assay [1] and in assay [2] was below 100 nM in each case.

For the compound `COc1cnc2c(Oc3ccc(NC(=O)c4nn(C)c(C)c(-c5ccc(F)cc5C)c4=O)cc3)ccnc2c1` [Compound 514, 5-(4-fluoro-2-methylphenyl)-N-[4-[(7-methoxy-1,5-naphthyridin-4-yl)oxy]phenyl]-1,6-dimethyl-4-oxopyridazine-3-carboxamide], the IC50 in assay [1] and in assay [2] was below 100 nM in each case.

On to `COc1cnc2c(Oc3ccc(NC(=O)c4nnc(C)c(-c5ccc(F)cc5)c4OC)cc3)ccnc2c1` [Compound 515, 5-(4-fluorophenyl)-4-methoxy-N-[4-[(7-methoxy-1,5-naphthyridin-4-yl)oxy]phenyl]-6-methylpyridazine-3-carboxamide], for which the IC50 in assay [1] and in assay [2] was below 100 nM each time.

In the case of `COCc1nc(C)c(-c2ccc(F)cc2C)c(O)c1C(=O)Nc1ccc(Oc2ccnc3ccc(OC)nc23)cc1` [Compound 516, 5-(4-fluoro-2-methylphenyl)-4-hydroxy-2-(methoxymethyl)-N-[4-[(6-methoxy-1,5-naphthyridin-4-yl)oxy]phenyl]-6-methylpyridine-3-carboxamide], the figures for the IC50 in assay [1] and in assay [2] were below 100 nM and 100 to 300 nM, respectively.

On to `COc1cc2nccc(Oc3ccc(NC(=O)c4nn(C)c(C)c(-c5ccc(F)cc5C)c4=O)cc3)c2nc1OC` [Compound 517, N-[4-[(6,7-dimethoxy-1,5-naphthyridin-4-yl)oxy]phenyl]-5-(4-fluoro-2-methylphenyl)-1,6-dimethyl-4-oxopyridazine-3-carboxamide], for which the IC50 in assay [1] and in assay [2] was below 100 nM each time.

In the case of `COc1cc2nccc(Oc3ccc(NC(=O)c4c(C)nc(C)c(-c5ccc(F)cc5CO)c4O)cc3F)c2nc1OC` [Compound 518, N-[4-[(6,7-dimethoxy-1,5-naphthyridin-4-yl)oxy]-3-fluorophenyl]-5-[4-fluoro-2-(hydroxymethyl]phenyl]-4-hydroxy-2,6-dimethylpyridine-3-carboxamide], the IC50 in assay [1] and in assay [2] was below 100 nM each time.

Consider `COc1cc2nccc(Oc3ccc(NC(=O)c4cc(C)nn(-c5ccc(F)cc5)c4=O)cc3F)c2nc1OC` [Compound 519, N-[4-[(6,7-dimethoxy-1,5-naphthyridin-4-yl)oxy]-3-fluorophenyl]-2-(4-fluorophenyl)-6-methyl-3-oxopyridazine-4-carboxamide], for which the IC50 is 100 to 300 nM in assay [1] and below 100 nM in assay [2].

Consider `COc1cc2nccc(Oc3ccc(NC(=O)c4cc(C)nn(-c5ccc(F)cc5)c4=O)cc3)c2nc1OC` [Compound 520, N-[4-[(6,7-dimethoxy-1,5-naphthyridin-4-yl)oxy]phenyl]-2-(4-fluorophenyl)-6-methyl-3-oxopyridazine-4-carboxamide], for which the IC50 in assay [1] and in assay [2] was below 100 nM each time.

For `COc1cnc2c(Oc3ccc(NC(=O)c4cc(C)nn(-c5ccc(F)cc5)c4=O)cc3F)ccnc2c1` [Compound 521, N-[3-fluoro-4-[(7-methoxy-1,5-naphthyridin-4-yl)oxy]phenyl]-2-(4-fluorophenyl)-6-methyl-3-oxopyridazine-4-carboxamide], the IC50 in assay [1] is below 100 nM; in assay [2], above 300 nM.

In the case of `COc1cnc2c(Oc3ccc(NC(=O)c4cc(C)nn(-c5ccc(F)cc5)c4=O)cc3)ccnc2c1` [Compound 522, 2-(4-fluorophenyl)-N-[4-[(7-methoxy-1,5-naphthyridin-4-yl)oxy]phenyl]-6-methyl-3-oxopyridazine-4-carboxamide], the IC50 was 100 to 300 nM in assay [1] and above 300 nM in assay [2].

These data come from US12371428B2 (Exelixis, Inc., priority 2019, dated 2025).
